Test results published in patent publication US12729377B2, “RNAi agents and compositions for inhibiting expression of angiopoietin-like 3 (ANGPTL3), and methods of use” (Arrowhead Pharmaceuticals, Inc., priority 2017, dated 2026).
In the oligonucleotide strings, read from the 5' end, every base follows the letter of its sugar. An asterisk marks phosphorothioate; unmarked linkages are phosphodiester. Other units and linkages are bracketed, terminal groups are in braces. A string of capitals states the bases alone. {NAG37} = tridentate N-acetyl-galactosamine targeting ligand, structure (NAG37)s; [invAb] = inverted abasic unit; m = 2'-O-methyl; f = 2'-fluoro

What was measured:
ANGPTL3 protein [1] = assay: Example 4: serum ANGPTL3 protein by ELISA in mice; assay type: in vivo, C57bl/6 mice; conditions: for Avg ANGPTL3 (Average ANGPTL3 Protein Normalized to Pre-Treatment and Control): serum, female C57bl/6 mice
Protocol: (§1) To assess the in vivo activity of ANGPTL3 RNAi agents that are designed to target additional positions on the ANGPTL3 gene, six- to eight-week-old female C57bl/6 mice were used. Pre-dose serum samples were taken at day −1 after a four hour fast. At day 1, each mouse was given a single subcutaneous administration of 200 μl containing either 1 mg/kg (mpk) or 0.5 mg/kg (mpk) of an ANGPTL3 RNAi agent in D5W (dextrose in 5% water), or control (D5W) with no RNAi agent, according to the dosing groups recited in Table 17.
(§2) Each of the RNAi agents included a modified sequence and an N-acetyl-galactosamine-containing targeting ligand conjugated to the 5′ terminal end of the sense strand. (See Tables 3, 4, and 5 for modified sequences and targeting ligand structures). The injections were performed between the skin and muscle (i.e. subcutaneous injections) into the loose skin over the neck and shoulder area. Three (3) mice in each group were tested (n=3). Serum was collected on days 8, 15, 22, 29, and day 43 (Groups 1-3, 9, and 11-13 only). Mice were fasted for four hours prior to each collection. ANGPTL3 protein levels in serum were measured by ELISA assay (R&D Systems), according to the manufacturer's recommendations. Triglycerides, high-density lipoprotein (HDL), and total cholesterol in serum were measured on a Cobas® Integra 400 (Roche Diagnostics), according to the manufacturer's recommendations.
(§3) The ANGPTL3 protein levels, triglyceride levels, HDL levels, and total cholesterol levels for each animal were normalized. For normalization, the level of ANGPTL3 protein, triglyceride, HDL, and total cholesterol, respectively, for each animal at a time point, was divided by the pre-treatment level of expression in that animal (in this case at day −1) to determine the ratio of expression “normalized to pre-treatment.” Expression at a specific time point was then normalized to the D5W control group by dividing the “normalized to pre-treatment” ratio for an individual animal by the mean “normalized to pretreatment” ratio of all mice in the D5W control group.

ANGPTL3 gene [2] = assay: Example 4: serum HDL in mice; assay type: in vivo, C57bl/6 mice
Protocol: as §1, §2, §3

ANGPTL3 gene [3] = assay: Example 4: serum LDL in mice; assay type: in vivo, C57bl/6 mice; conditions: for Avg LDL, normalized to pre-treatment and control: serum, n=3
Protocol: as §1, §2, §3

ANGPTL3 protein [4] = assay: Example 7: serum ANGPTL3 protein by ELISA in mice; assay type: in vivo, C57bl/6 mice; parameters: key: ratio: (level/pre-treatment day -1 level) ÷ mean of D5W control group
Protocol: To further assess the in vivo activity of additional ANGPTL3 RNAi agents that are designed to target position 304 on the ANGPTL3 gene, six- to eight-week-old female C57bl/6 mice were used. Pre-dose serum samples were taken at day −1 after a four hour fast. At day 1, each mouse was given a single subcutaneous administration of 200 μl containing 0.5 mg/kg (mpk) of an ANGPTL3 RNAi agent in D5W (dextrose in 5% water), or control (D5W) with no RNAi agent, according to the dosing groups recited in Table 31.
as §2, with “22,” for “22, 29,”, “29.” for “day 43 (Groups 1-3, 9, and 11-13 only).”, “Triglycerides, total cholesterol,” for “Triglycerides,”, “low-density lipoprotein (LDL)” for “total cholesterol”
The ANGPTL3 protein levels, triglyceride levels, total cholesterol levels, HDL levels, and LDL levels for each animal were normalized. For normalization, the level of ANGPTL3 protein, triglyceride, HDL, and total cholesterol, respectively, for each animal at a time point, was divided by the pre-treatment level of expression in that animal (in this case at day −1) to determine the ratio of expression “normalized to pre-treatment.” Expression at a specific time point was then normalized to the D5W control group by dividing the “normalized to pre-treatment” ratio for an individual animal by the mean “normalized to pretreatment” ratio of all mice in the D5W control group.

ANGPTL3 gene [5] = assay: Example 3: serum total cholesterol in mice; assay type: in vivo
Protocol: as §1, with “target” for “target additional”, “positions 921 and 922” for “positions”, “(mpk)” for “(mpk) or 0.5 mg/kg (mpk)”, “12.” for “17.”
as §2, with “Serum was collected on days 8, 15, 22, 29, and day 43 (Groups 1-3, 9, and 11-13 only).” left out
as §3

[6] = Day 8, 1.0 mg/kg single subcutaneous dose on day 1
[7] = Day 15, 1.0 mg/kg single subcutaneous dose on day 1
[8] = Day 22, 1.0 mg/kg single subcutaneous dose on day 1
[9] = Day 29, 1.0 mg/kg single subcutaneous dose on day 1
[10] = Day 43, 1.0 mg/kg single subcutaneous dose on day 1
[11] = Day 8, 1.0 mg/kg single SC injection on day 1, n=3
[12] = Day 15, 1.0 mg/kg single SC injection on day 1, n=3
[13] = Day 22, 1.0 mg/kg single SC injection on day 1, n=3
[14] = Day 29, 1.0 mg/kg single SC injection on day 1, n=3
[15] = Day 43, 1.0 mg/kg single SC injection on day 1, n=3
[16] = Day 8, 1.0 mg/kg single SC injection on day 1
[17] = Day 15, 1.0 mg/kg single SC injection on day 1
[18] = Day 22, 1.0 mg/kg single SC injection on day 1
[19] = Day 29, 1.0 mg/kg single SC injection on day 1
[20] = Day 43, 1.0 mg/kg single SC injection on day 1
[21] = Day 8, 0.5 mg/kg single SC injection on day 1, n=3
[22] = Day 15, 0.5 mg/kg single SC injection on day 1, n=3
[23] = Day 22, 0.5 mg/kg single SC injection on day 1, n=3
[24] = Day 29, 0.5 mg/kg single SC injection on day 1, n=3
[25] = Day 8, 1.0 mg/kg single subcutaneous dose on day 1, female C57bl/6 mice
[26] = Day 15, 1.0 mg/kg single subcutaneous dose on day 1, female C57bl/6 mice
[27] = Day 22, 1.0 mg/kg single subcutaneous dose on day 1, female C57bl/6 mice
[28] = Day 29, 1.0 mg/kg single subcutaneous dose on day 1, female C57bl/6 mice

Row | Substance | Avg ANGPTL3 (Average ANGPTL3 Protein Normalized to Pre-Treatment and Control) (ANGPTL3 protein [1]; [6]) | Avg ANGPTL3 (Average ANGPTL3 Protein Normalized to Pre-Treatment and Control) (ANGPTL3 protein [1]; [7]) | Avg ANGPTL3 (Average ANGPTL3 Protein Normalized to Pre-Treatment and Control) (ANGPTL3 protein [1]; [8]) | Avg ANGPTL3 (Average ANGPTL3 Protein Normalized to Pre-Treatment and Control) (ANGPTL3 protein [1]; [9]) | Avg ANGPTL3 (Average ANGPTL3 Protein Normalized to Pre-Treatment and Control) (ANGPTL3 protein [1]; [10]) | Avg HDL, normalized to pre-treatment and control (ANGPTL3 gene [2]; [11]) | Avg HDL, normalized to pre-treatment and control (ANGPTL3 gene [2]; [12]) | Avg HDL, normalized to pre-treatment and control (ANGPTL3 gene [2]; [13]) | Avg HDL, normalized to pre-treatment and control (ANGPTL3 gene [2]; [14]) | Avg HDL, normalized to pre-treatment and control (ANGPTL3 gene [2]; [15]) | Avg LDL, normalized to pre-treatment and control (ANGPTL3 gene [3]; [16]) | Avg LDL, normalized to pre-treatment and control (ANGPTL3 gene [3]; [17]) | Avg LDL, normalized to pre-treatment and control (ANGPTL3 gene [3]; [18]) | Avg LDL, normalized to pre-treatment and control (ANGPTL3 gene [3]; [19]) | Avg LDL, normalized to pre-treatment and control (ANGPTL3 gene [3]; [20]) | Avg ANGPTL3, normalized to pre-treatment and control (ANGPTL3 protein [4]; [21]) | Avg ANGPTL3, normalized to pre-treatment and control (ANGPTL3 protein [4]; [22]) | Avg ANGPTL3, normalized to pre-treatment and control (ANGPTL3 protein [4]; [23]) | Avg ANGPTL3, normalized to pre-treatment and control (ANGPTL3 protein [4]; [24]) | Avg Total Chol (Average Total Cholestrol Normalized to Pre-Treatment and Control) (ANGPTL3 gene [5]; [25]) | further results
1 | AD05488: RNAi agent duplex: antisense AM07235-AS, sense AM07234-SS (antisense mU*fA*mC*fUmGfAmUfCmAfAmAfUmAfUmGfUmUfGmAfG*mC; sense {NAG37}*[invAb]*mGmCmUmCmAmAmCmAfUfAfUmUmUmGmAmUmCmAmGmUmA*[invAb]) | 0.090 | 0.070 | 0.092 | 0.124 | 0.254 | 0.839 | 0.644 | 0.727 | 0.771 | 0.833 | 0.936 | 0.714 | 0.811 | 0.801 | 0.902 | 0.339 | 0.379 | 0.346 | 0.469 | – | ANGPTL3 protein normalized to pre-treatment and control (ANGPTL3 protein [1]; day 15, single 1 mg/kg subcutaneous, C57bl/6 mice): 0.070; ANGPTL3 protein normalized to pre-treatment and control (ANGPTL3 protein [1]; day 22, single 1 mg/kg subcutaneous, C57bl/6 mice): 0.092; knockdown of ANGPTL3 protein (ANGPTL3 protein [1]; days 15 and 22, single 1 mg/kg subcutaneous, C57bl/6 mice): greater than 90%; LDL levels reduced (ANGPTL3 gene [3]; day 29, single 1 mg/kg subcutaneous, C57bl/6 mice): ~20%
2 | AD05308: RNAi agent duplex: antisense AM07003-AS, sense AM07002-SS (chain 1 mU*fG*mU*fUmGfAmAfUmUfAmAfUmGfUmCfCmAfUmGfG*mA; chain 2 {NAG37}*[invAb]*mUmCmCmAmUmGmGmAfCfAfUmUmAmAmUmUmCmAmAmCmA*[invAb]) | 0.299 | 0.298 | 0.252 | 0.322 | 0.643 | 0.904 | 0.801 | 0.728 | 0.824 | 1.096 | 0.842 | 0.688 | 0.829 | 0.897 | 1.033 | 0.447 | 0.388 | 0.440 | 0.523 | 0.872 | Avg Total Chol (Average Total Cholestrol Normalized to Pre-Treatment and Control) (ANGPTL3 gene [5]; [26]): 0.768; Avg Total Chol (Average Total Cholestrol Normalized to Pre-Treatment and Control) (ANGPTL3 gene [5]; [27]): 1.048; Avg Total Chol (Average Total Cholestrol Normalized to Pre-Treatment and Control) (ANGPTL3 gene [5]; [28]): 0.978; Avg ANGPTL3 (Average ANGPTL3 Protein Normalized to Pre-Treatment and Control) (ANGPTL3 protein [1]; Day 8, 0.5 mg/kg single subcutaneous dose on day 1): 0.340; Avg ANGPTL3 (Average ANGPTL3 Protein Normalized to Pre-Treatment and Control) (ANGPTL3 protein [1]; Day 15, 0.5 mg/kg single subcutaneous dose on day 1): 0.310; Avg ANGPTL3 (Average ANGPTL3 Protein Normalized to Pre-Treatment and Control) (ANGPTL3 protein [1]; Day 22, 0.5 mg/kg single subcutaneous dose on day 1): 0.319; Avg ANGPTL3 (Average ANGPTL3 Protein Normalized to Pre-Treatment and Control) (ANGPTL3 protein [1]; Day 29, 0.5 mg/kg single subcutaneous dose on day 1): 0.345; Avg ANGPTL3 (Average ANGPTL3 Protein Normalized to Pre-Treatment and Control) (ANGPTL3 protein [1]; Day 43, 0.5 mg/kg single subcutaneous dose on day 1): 0.582; Avg HDL, normalized to pre-treatment and control (ANGPTL3 gene [2]; [21]): 1.007; Avg HDL, normalized to pre-treatment and control (ANGPTL3 gene [2]; [22]): 0.770; Avg HDL, normalized to pre-treatment and control (ANGPTL3 gene [2]; [23]): 0.921; Avg HDL, normalized to pre-treatment and control (ANGPTL3 gene [2]; [24]): 0.934; Avg HDL, normalized to pre-treatment and control (ANGPTL3 gene [2]; Day 43, 0.5 mg/kg single SC injection on day 1, n=3): 1.101; Avg LDL, normalized to pre-treatment and control (ANGPTL3 gene [3]; Day 8, 0.5 mg/kg single SC injection on day 1): 0.965; Avg LDL, normalized to pre-treatment and control (ANGPTL3 gene [3]; Day 15, 0.5 mg/kg single SC injection on day 1): 0.830
3 | AD05307: RNAi agent duplex: antisense AM07001-AS, sense AM07000-SS (chain 1 mU*fU*mU*fGmAfAmUfUmAfAmUfGmUfCmCfAmUfGmGmG*mC; chain 2 {NAG37}*[invAb]*mGmCmCmCmAmUmGmGfAfCfAmUmUmAmAmUmUmCmAmAmA*[invAb]) | – | – | – | – | – | – | – | – | – | – | – | – | – | – | – | – | – | – | – | 0.940 | Avg Total Chol (Average Total Cholestrol Normalized to Pre-Treatment and Control) (ANGPTL3 gene [5]; [26]): 0.840; Avg Total Chol (Average Total Cholestrol Normalized to Pre-Treatment and Control) (ANGPTL3 gene [5]; [27]): 0.948; Avg Total Chol (Average Total Cholestrol Normalized to Pre-Treatment and Control) (ANGPTL3 gene [5]; [28]): 1.088
